Results taken from patent US12372525B2 (priority 2013, dated 2025).
Entries after “also recorded” stand apart in the source; their conditions may differ.

Legend:
[1] = test system: A/Texas/12/2007 (H3N2) E119V; settings: Oselt resistance strain; cited from earlier work
[2] = test system: A/Massachusetts/5/2007 (H1N1) H274Y; settings: Oselt resistance strain; cited from earlier work
[3] = test system: A/Georgia/20/2006 (H1N1) H274Y; settings: Oselt resistance strain; cited from earlier work
[4] = test system: A/Mississippi/03/2001 A(H1N1) H275Y neuraminidase; settings: stated character of the test strain; cited from earlier work
influenza virus = settings: cited from earlier work
[5] = test system: A/Washington/29/2009(H1N1pdm) H275Y; settings: Oselt resistance strain; cited from earlier work
[6] = test system: B/Hong Kong/36/2005 B) R371K; settings: Oselt + Zana resistance strain; cited from earlier work
[7] = test system: A/Montana/8/2007 (H3N2) D151V/D; settings: Zana resistance strain; cited from earlier work
[8] = test system: A/Mississippi/03/2001 A(H1N1) H275Y neuraminidase; assay type: biochemical, Influenza A

Structure (SMILES) | IC50 [1] | IC50 [2] | IC50 [3] | known sensitivity of the test strain neuraminidase to the drug [4] | decrease in susceptibility of isolated virus variants (influenza virus) | IC50 [5] | IC50 [6] | IC50 [7] | relative sensitivity of test strain in dual enzyme assay [8]
CCOC(=O)C1=C[C@@H](OC(CC)CC)[C@H](NC(C)=O)[C@@H](N)C1 [Oseltamivir] | 9.18 nM | 258 nM | 383 nM | resistant | > 10 fold | 1460 nM | 1780 nM |  | 
CC(=O)N[C@H]1[C@H]([C@H](O)[C@H](O)CO)OC(C(=O)O)=C[C@@H]1N=C(N)N [Zanamivir] |  |  |  | sensitive |  |  | 154 nM | 192 nM | more sensitive to Zanamivir than Oseltamivir; also recorded: Relenza outperforms Tamiflu
